Consider seven molecules from patent US20250108023A1, “Products for Masking Bitterness” (The Third People's Hospital of Henan Province, priority 2023, published 2025).

This assay addresses T1, sodium ion channel of Trpm5 bitter receptor (Mus musculus, UniProt Q9JJH7).
T1 construct: Put the removed tongue in a 2 ml EP tube, add 1-1.5 ml of 0.25% trypsin solution; from tissue; host or cells: cells dissociated with trypsin from mouse tongue
T1 sequence (Q9JJH7 1-1158): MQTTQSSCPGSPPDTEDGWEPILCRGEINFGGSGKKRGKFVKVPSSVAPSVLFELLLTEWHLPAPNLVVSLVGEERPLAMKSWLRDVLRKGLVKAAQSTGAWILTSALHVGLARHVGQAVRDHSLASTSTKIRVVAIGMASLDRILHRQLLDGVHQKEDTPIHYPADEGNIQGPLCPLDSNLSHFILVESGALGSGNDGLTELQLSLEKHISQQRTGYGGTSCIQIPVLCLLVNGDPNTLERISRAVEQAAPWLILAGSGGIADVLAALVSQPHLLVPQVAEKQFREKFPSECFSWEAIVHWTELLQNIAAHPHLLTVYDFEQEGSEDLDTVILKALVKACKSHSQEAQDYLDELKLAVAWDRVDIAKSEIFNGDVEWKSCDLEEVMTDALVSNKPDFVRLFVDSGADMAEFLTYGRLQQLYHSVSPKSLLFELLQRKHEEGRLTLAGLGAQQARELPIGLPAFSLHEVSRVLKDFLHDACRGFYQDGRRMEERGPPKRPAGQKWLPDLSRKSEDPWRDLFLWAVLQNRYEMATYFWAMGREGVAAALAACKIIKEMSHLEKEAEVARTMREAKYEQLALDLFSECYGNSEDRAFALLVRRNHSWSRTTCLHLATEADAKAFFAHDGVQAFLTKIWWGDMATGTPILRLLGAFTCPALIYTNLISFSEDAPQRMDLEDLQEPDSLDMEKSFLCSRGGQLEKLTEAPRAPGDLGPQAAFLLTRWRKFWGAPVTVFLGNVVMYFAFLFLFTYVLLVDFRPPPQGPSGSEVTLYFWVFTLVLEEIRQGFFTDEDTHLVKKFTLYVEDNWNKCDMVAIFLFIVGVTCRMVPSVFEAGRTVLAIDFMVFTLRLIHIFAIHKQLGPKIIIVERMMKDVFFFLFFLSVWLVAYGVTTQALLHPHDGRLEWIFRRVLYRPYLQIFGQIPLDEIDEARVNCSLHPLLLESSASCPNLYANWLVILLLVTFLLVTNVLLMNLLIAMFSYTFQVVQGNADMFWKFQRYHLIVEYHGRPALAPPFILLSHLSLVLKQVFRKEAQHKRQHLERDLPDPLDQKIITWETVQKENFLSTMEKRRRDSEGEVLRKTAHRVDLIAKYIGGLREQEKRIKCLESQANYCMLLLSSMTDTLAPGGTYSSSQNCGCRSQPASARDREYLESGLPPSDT
In words: Immunofluorescence experiment of sodium ion channels in mouse tongue cells stimulated with bitter agent. To be noted: for blocking effect on the sodium ion channel (result analysis in words): judged from change of sodium ion fluorescence after bitter drug. It is filed as cell-based, mice. On the procedure:
The mouse was killed by dislocation, and the tongue was removed (minimizing tongue bleeding), disinfected with alcohol for 2 minutes (adding sodium citrate for anticoagulation), and washed with D-Hanks solution or rinsed with 10 ml of saline solution drawn by a syringe.
Take out the centrifuge tube from the constant temperature incubator, shake for 2 minutes, blow the undigested tongue several times with the gun tip, take out the tongue, cover it with the EP tube cap, put it in a centrifuge, centrifuge at 3000 rpm for 3 minutes, discard the supernatant, add cell culture medium (containing 10% inactivated serum), blow and disperse the cells, and place it in a 37° C. constant temperature incubator for 30 min to allow the cells to recover.
(1) Take out the prepared ENG-2 AM storage solution and warm it to room temperature for use, keeping it away from light. The concentration of the pre-prepared stock solution is 2 mM and it is stored at −18° C. for future use.
(2) Dilute the ENG-2 AM+DMSO stock solution to a […] working solution using serum-free culture medium.
(3) Load the probe in a serum-free culture medium containing an appropriate concentration of AM probe.
Take out the cells from the incubator, centrifuge, and discard the culture medium. Wash the cells once with D-Hanks solution, centrifuge, and discard the culture medium. Add 1 ml of culture medium again, then add 300 ul of sodium ion probe dilution solution, blow and disperse the cells, and incubate the cells at room temperature or 37° C. for 1 hour.
At the end of incubation, centrifuge at 100 rpm for 2 minutes, discard the supernatant, add 500 ul of cell culture medium without AM probe, blow and disperse the cells, and incubate for 20-60 min to ensure that the cells completely deesterify the AM group.
(4) Take 10 ul of incubation solution and drop it into the center of the cell counting plate, cover it with a slide, and observe it under a fluorescence microscope.
(5) Use a low-power microscope to find the cells, open the fluorescence path, detect the fluorescence signal with a fluorescence microscope, change to a high-power microscope, find the appropriate observation cells, observe and take pictures to record the initial signal.
(2) Experimental drugs: Add 5 ul of the tested drug to one side of the cover glass on the cell counting plate, use absorbent paper to absorb water on the opposite side, let the solution soak the cells, and then use a fluorescence microscope to observe and take 3-5 photos, one every 1-2 minutes; then add 5 ul of the standard bitter drug to one side of the cover glass on the cell counting plate, use absorbent paper to absorb water on the opposite side, let the solution soak the cells, and then use a fluorescence microscope to observe and take 3-5 photos, one every 1-2 minutes.
(5) Data analysis: Use Image J-Fiji software to analyze the images, compare the average values of the fluorescence pixels, remove the base number and compare them in the table, draw FIGS. 4-6, and use SPSS18.0 to perform chi-square tests to compare the differences between the data groups.

Setting [1] is: Bitterant 60 s (2% metronidazole solution).
The mark [2] stands for this setting: Bitterant 120 s (2% metronidazole solution).
[3] abbreviates: Bitterant 180 s (2% metronidazole solution).
The mark [4] stands for this setting: Initial (before addition of drug), sodium ion dye ENG-2 AM.
Where [5] appears, read: Bitterant 240 s (2% metronidazole solution).

The structures appear in SMILES notation.

Consider `O=CC=Cc1ccccc1` [Cinnamaldehyde, 3-phenyl-2-propenal], for which the “blocking effect on the sodium ion channel (result analysis in words)” value (“blocking effect” below) is given as “can block the sodium ion channel of Trpm5 bitter receptor”. In addition, under “Addition of drugs”, the “average value of fluorescence brightness” value turned out to be 31.017 and the “average value of fluorescence brightness, base number removed” value (from here on “average value … base number removed”) was −0.328. Under setting [1], the “average value of fluorescence brightness” value was 30.893 and the “average value … base number removed” value is listed as −0.452. Besides, under setting [2], the “average value of fluorescence brightness” value is 30.691 and the “average value … base number removed” value is given as −0.654. In addition, under setting [3], the “average value of fluorescence brightness” value stood at 30.597 and the “average value … base number removed” value was −0.748. Further, the “average value … base number removed” value (Initial) stood at 0. Under setting [4], the “average value of fluorescence brightness” value is listed as 31.345.
Regarding `CC(C)=CCCC(C)=CC=O` [Citral, citral], the “blocking effect” value is “can block the sodium ion channel of Trpm5 bitter receptor”. For the same molecule, under “Addition of drugs”, the “average value of fluorescence brightness” value is 29.943 and the “average value … base number removed” value is −0.335. In addition, under setting [1], the “average value of fluorescence brightness” value was 29.766 and the “average value … base number removed” value is −0.512. For the same molecule, under setting [2], the “average value of fluorescence brightness” value is 29.742 and the “average value … base number removed” value is recorded as −0.536. Moreover, under setting [3], the “average value of fluorescence brightness” value stood at 29.647 and the “average value … base number removed” value was −0.631. The “average value … base number removed” value (Initial) is 0. Besides, the “average value of fluorescence brightness” value under setting [4] came out at 30.278.
Consider `C=CCc1ccc(OC(C)=O)c(OC)c1` [Eugenol acetate], for which the “blocking effect” value is reported as “can block the sodium ion channel of Trpm5 bitter receptor”. Where the note is “Addition of drugs”, the “average value of fluorescence brightness” value is listed as 28.103 and the “average value … base number removed” value is listed as −0.125. Under setting [1], the “average value of fluorescence brightness” value stood at 27.797 and the “average value … base number removed” value is reported as −0.431. Further, under setting [2], the “average value of fluorescence brightness” value was determined as 26.368 and the “average value … base number removed” value is given as −1.86. Under setting [3], the “average value of fluorescence brightness” value is recorded as 26.329 and the “average value … base number removed” value is −1.899. For the same molecule, the “average value … base number removed” value (Initial) is 0. Under setting [4], the “average value of fluorescence brightness” value is on record as 28.228.
Turning to `CCCCC[C@H](O)CC(=O)CCc1ccc(O)c(OC)c1` [Gingerol, 6-gingerol], the “blocking effect” value is recorded as “can block the sodium ion channel of Trpm5 bitter receptor”. Moreover, under “Addition of drugs”, the “average value of fluorescence brightness” value came out at 25.244 and the “average value … base number removed” value was −0.093. In addition, under setting [1], the “average value of fluorescence brightness” value amounted to 25.15 and the “average value … base number removed” value is recorded as −0.187. Under setting [2], the “average value of fluorescence brightness” value is 25.137 and the “average value … base number removed” value is −0.2. Besides, under setting [3], the “average value of fluorescence brightness” value was found to be 25.08 and the “average value … base number removed” value is reported as −0.257. For the setting “Initial”, the “average value … base number removed” value is listed as 0. For the same molecule, the “average value of fluorescence brightness” value under setting [4] amounted to 25.337.
On to `C=CC(C)(O)CCC=C(C)C` (stereo not drawn) [Linalool, linalool], for which the “blocking effect” value was “can block the sodium ion channel of Trpm5 bitter receptor”. Moreover, where the note is “Addition of drugs”, the “average value of fluorescence brightness” value is 27.648 and the “average value … base number removed” value is −0.135. Moreover, the “average value of fluorescence brightness” value under setting [1] came to 27.649. Further, under setting [2], the “average value of fluorescence brightness” value is reported as 27.44 and the “average value … base number removed” value is −0.343. Under setting [3], the “average value of fluorescence brightness” value is 27.426 and the “average value … base number removed” value is given as −0.357. Under setting [5], the “average value of fluorescence brightness” value came to 26.46 and the “average value … base number removed” value is given as −1.323. The “average value … base number removed” value (Initial) is listed as 0. Besides, the “average value of fluorescence brightness” value under setting [4] turned out to be 27.783.
`CC1CCC(C(C)C)C(=O)C1` (stereo not drawn) [Menthone, 5-methyl-2-isopropylcyclohexanone]: the “blocking effect” value is given as “can block the sodium ion channel of Trpm5 bitter receptor”. Besides, under “Addition of drugs”, the “average value of fluorescence brightness” value is listed as 25.48 and the “average value … base number removed” value is recorded as −0.076. Further, under setting [1], the “average value of fluorescence brightness” value was determined as 25.415 and the “average value … base number removed” value is −0.141. Moreover, under setting [2], the “average value of fluorescence brightness” value was determined as 25.447 and the “average value … base number removed” value is −0.109. In addition, under setting [3], the “average value of fluorescence brightness” value stood at 25.4 and the “average value … base number removed” value is recorded as −0.156. Moreover, where the note is “Initial”, the “average value … base number removed” value amounted to 0. The “average value of fluorescence brightness” value under setting [4] is given as 25.556.
As for `CC(C)[C@@H]1CC[C@@H](C)C[C@H]1OC(=O)CCC(=O)O` [Menthyl succinate], the “blocking effect” value was “can block the sodium ion channel of Trpm5 bitter receptor”. In addition, where the note is “Addition of drugs”, the “average value of fluorescence brightness” value turned out to be 28.92 and the “average value … base number removed” value came out at 0.041. Under setting [1], the “average value of fluorescence brightness” value was 28.747 and the “average value … base number removed” value is −0.132. Moreover, under setting [2], the “average value of fluorescence brightness” value is reported as 28.8 and the “average value … base number removed” value is −0.079. Under setting [3], the “average value of fluorescence brightness” value turned out to be 28.851 and the “average value … base number removed” value is −0.028. Moreover, under “Initial”, the “average value … base number removed” value is 0. Further, under setting [4], the “average value of fluorescence brightness” value is 28.879.
